The supplement of paper PMC6045584

What was measured:
Experiment in all cases: area under dose-response curve of surviving fraction (unscaled, Aref=0) (surviving fraction x log10(nM)); higher = more resistant
Conditions in all cases: exposure time: 5 days; dose range 0.5-1000 nM
SOTRASTAURIN/AEB071 = compound: CN1CCN(c2nc(C3=C(c4c[nH]c5ccccc45)C(=O)NC3=O)c3ccccc3n2)CC1 [SOTRASTAURIN/AEB071]
In short: (§1)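 Tumour cell lines in 384-well plates were exposed to eight inhibitor concentrations, from 0.5 to 1000 nM, for five days, and viability was read by CellTiter-Glo luminescence in three screens per line. Signals were normalised to DMSO-only wells, and 3-parameter logistic regression in the drc R package fitted dose-response survival curves to the surviving fractions. Area under the curve is given as the unscaled activity area. That area is taken over log10 dose with Aref = 0.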

CRIZOTINIB = compound: C[C@@H](Oc1cc(-c2cnn(C3CCNCC3)c2)cnc1N)c1c(Cl)ccc(F)c1Cl [CRIZOTINIB]
In short: as §1

[1] = compound: CCn1c(C(=O)N(C2CC2)C2CC2)cc2c3c(ncn3C)c(Nc3cc(C)n(C)n3)nc21
In short: as §1

ABIRATERONE = compound: C[C@]12CC[C@H](O)CC1=CC[C@@H]1[C@@H]2CC[C@]2(C)C(c3cccnc3)=CC[C@@H]12 [ABIRATERONE]
In short: as §1

[2] = compound: CNCc1ccc(-c2[nH]c3cc(F)cc4c3c2CCNC4=O)cc1
In short: as §1

FORETINIB = compound: COc1cc2c(Oc3ccc(NC(=O)C4(C(=O)Nc5ccc(F)cc5)CC4)cc3F)ccnc2cc1OCCCN1CCOCC1 [FORETINIB]
In short: as §1

TEMOZOLOMIDE = compound: Cn1nnc2c(C(N)=O)ncn2c1=O [TEMOZOLOMIDE]
In short: as §1

XAV-939 = compound: Oc1nc(-c2ccc(C(F)(F)F)cc2)nc2c1CSCC2 [XAV-939]
In short: as §1

MLN-4924 = compound: NS(=O)(=O)OC[C@@H]1C[C@@H](n2ccc3c(N[C@H]4CCc5ccccc54)ncnc32)C[C@@H]1O [MLN-4924]
In short: as §1

DASATINIB = compound: Cc1nc(Nc2ncc(C(=O)Nc3c(C)cccc3Cl)s2)cc(N2CCN(CCO)CC2)n1 [DASATINIB]
In short: as §1

[3] = compound: C[C@@H](Oc1cc(-c2cnn(C3CCNCC3)c2)cnc1N)c1c(Cl)ccc(F)c1Cl
In short: as §1

OLAPARIB = compound: O=C(c1cc(Cc2n[nH]c(=O)c3ccccc23)ccc1F)N1CCN(C(=O)C2CC2)CC1 [OLAPARIB]
In short: as §1

SORAFENIB = compound: CNC(=O)c1cc(Oc2ccc(NC(=O)Nc3ccc(Cl)c(C(F)(F)F)c3)cc2)ccn1 [SORAFENIB]
In short: as §1

[4] = compound: COc1cc2ncnc(Nc3ccc(F)c(Cl)c3)c2cc1NC(=O)/C=C/CN1CCCCC1
In short: as §1

Row | Test System | area under dose-response curve (SOTRASTAURIN/AEB071) | area under dose-response curve (CRIZOTINIB) | area under dose-response curve [1] | area under dose-response curve (ABIRATERONE) | area under dose-response curve [2] | area under dose-response curve (FORETINIB) | area under dose-response curve (TEMOZOLOMIDE) | area under dose-response curve (XAV-939) | area under dose-response curve (MLN-4924) | area under dose-response curve (DASATINIB) | area under dose-response curve [3] | area under dose-response curve (OLAPARIB) | area under dose-response curve (SORAFENIB) | area under dose-response curve [4]
1 | JIMT1 BREAST | 3.24 | 3.18 | 3.27 | 3.3 | 3.03 | 3.01 | 3.4 | 3.26 | 3.19 | 1.66 | 3.01 | 3.01 | 3.34 | 2.5
2 | MDAMB157 BREAST | 3.23 | 3.17 | 2.94 | 3.17 | 3.13 | 2.94 | 3.27 | 3.08 | 2.69 | 1.89 | 2.84 | 3.21 | – | 3.08
3 | LNCAP PROSTATE | 3.71 | 2.91 | 2.93 | 2.98 | – | 2.93 | 3.08 | 2.79 | 1.35 | 2.62 | 2.82 | 3.27 | – | 2.92
4 | OSHN BONE | 3.32 | 3.28 | 3.38 | 3.67 | 3.21 | 3.09 | 3.58 | 3.53 | 2.48 | 2.81 | 3.17 | 3.28 | 3.51 | 3.52
5 | HCC78 LUNG | 3.62 | 2.26 | 2.67 | 3.32 | 3.18 | 1.78 | 2.97 | 2.69 | 1.64 | 1.88 | 2.08 | 3.38 | 3.05 | 2.51
6 | U2OS BONE | 3.36 | 3.06 | 3.44 | 3.6 | 3.17 | 3 | 3.39 | 3.25 | 2.83 | 2.63 | 2.88 | 3.26 | 3.5 | 3.24
7 | MDAMB231 BREAST | 3.34 | 2.93 | 3.25 | 3.29 | 3.03 | 2.91 | 3.27 | 2.95 | 2.4 | 1.44 | 2.81 | 3.09 | 3.13 | 3.08
8 | T47D BREAST | 3.44 | 3.51 | 3.36 | 3.62 | 3.24 | 3.43 | 3.49 | 3.54 | 2.34 | 3.08 | 3.15 | 3.11 | 3.6 | 3.49
